Paper PMC10363480 (Plant Communications, 2023)
Where “and” joins values, the source holds several entries; their conditions need not be identical. Equal entries are not always repeated. Entries after “also recorded” stand apart in the source; their conditions may differ.

How the values were obtained:
Format in all cases: cell-based
[1] = test system: mitochondria or chloroplast of Chlamydomonas reinhardtii; experiment: Automated image segmentation / quantification of Venus signal (pyrenoid/chlorophyll, mitochondria/cell); details: for automated image quantification values: unmodified HA-RAMPs, Supplemental Figures 2E, 2F, 5A, 9A
Excerpt: A custom ImageJ Macro was written to enable automated image segmentation of epifluorescence micrographs in Fiji. In brief, in a given micrograph, fluorescence intensities were normalized, and individual cells were detected using marker-controlled watershed from the MorphoLibJ library ([Legland et al., 2016]). For each cell, auto-thresholding the chlorophyll channel using the Huang method was used to generate a chlorophyll mask. Separately, the chlorophyll channel was subjected to a series of morphological filters and Gaussian blurring followed by auto-thresholding to finally detect round holes between 0.1 and 5 μm within the ensuing binary image to be saved as a pyrenoid mask. In MitoTracker images, the MitoTracker channel was subjected to morphological filtering followed by auto-thresholding with Otsu to generate a mitochondrial mask. Venus channel intensities were recorded for each compartment. For each cell, rotated images containing binary masks as extra channels were saved. Data were compiled, analyzed, and plotted in R v.3.6.1 (https://www.r-project.org/) using RStudio 2022.07.2+576 (https://www.rstudio.com/).
Automated Image Analysis corroborates targeting
To assess subcellular Venus localisation independently of our manual targeting assignment, 2202 3-channel images containing Venus, chlorophyll and brightfield channels, and 557 4-channel images containing an additional MitoTracker channel, were subjected to automated, quantitative […]
image analysis (Fig. S2).
In the absence of Venus, low chlorophyll autofluorescence is visible in the Venus channel; in the absence of a presequence, Venus accumulates in the cytoplasm, targeting neither to the mitochondria nor to the chloroplast. When equipped with the chimeric B15Kc presequence, Venus […]
previously using confocal microscopy and biochemistry on isolated organelles (Garrido et al., When targeted to the chloroplast, Venus not only colocalizes with chlorophyll but also accumulates within the pyrenoid. The pyrenoid can be detected as a region of lower chlorophyll fluorescence at the base of the cup-shaped chloroplast, as visualized in Fig. S2B where the pyrenoid is labelled fluorescently using an RBCS-Venus fusion protein. Given that chlorophyll autofluorescence renders colocalization of Venus channel signal with the chlorophyll channel potentially misleading in constructs with low Venus accumulation, we chose to focus on evaluating Venus signal within the pyrenoid for automated image segmentation (Fig. S2C inset). Rather than comparing pyrenoidal Venus to the entire cell, we opted for a comparison with Venus in the rest of the chloroplast excluding the pyrenoid (the chlorophyll region), since strong Venus channel signal from within the pyrenoid should generate high values for a pyrenoid/chlorophyll ratio when Venus is in the chloroplast and low values when Venus is elsewhere. This approach was able to separate chloroplast-targeting constructs very effectively from constructs where Venus localized elsewhere in the cell (Fig. S2C). Only a small region of overlap between the two categories remains (highlighted in blue). Among constructs targeting elsewhere, constructs found in this overlap region typically show low Venus accumulation, e.g. the no-Venus control falls also falls in this region (black diamond). […]

[2] = test system: mitochondria or chloroplast of Chlamydomonas reinhardtii; experiment: Subcellular localization of Venus reporter by epifluorescence microscopy (manual targeting assignment); details: for mitochondrial targeting upon addition of mTP-C (P^m): C-terminal element of CAG2-mTP added to the named peptide, Figure 2 rows C and D; for mitochondrial localization upon addition of cTP-C (P^c): C-terminal element of RCA1-cTP added; for organelle targeting (Venus reporter localization) by the construct as labelled: peptide inserted upstream of Venus, stable Chlamydomonas lines, epifluorescence, MitoTracker / chlorophyll / pyrenoid co-localization, three independent insertion lines; for Localisation: peptide-Venus reporter construct expressed in Chlamydomonas reinhardtii, manual targeting assignment (Neither / Mitochondria / Chloroplast / Dual; partial = partial targeting)
Outline: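 Targeting peptide variants fused to Venus reporter, transformed into Chlamydomonas wild-type T222+ (CC-5101); three independent transformant lines per construct. Localization assigned manually from epifluorescence images using chlorophyll autofluorescence for chloroplast and 0.1 μM MitoTracker Red CMXRos (30 min) for mitochondria. Automated segmentation used for validation.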

[3] = test system: Escherichia coli strain BW25113; experiment: Minimum inhibitory concentration / antimicrobial activity growth assay; details: growth assay with dilutions of the AMP, Escherichia coli strain BW25113, Figure 3D
[4] = Figure 2, bare name = K and R versions

Substance: ALWMTLLKKVLKAAAKAALNAVLVGANA [DS4, dermaseptin S4, HA-RAMP antimicrobial peptide]
- Venus.ratio_pyr ([1]; Venus channel signal in the pyrenoid relative to the chlorophyll region, single-cell values, image 1, 3 channels, Cation K, no TP elements, strain 2): 0.9978 and 0.9365
- Venus.ratio_pyr.norm ([1]; normalized so that construct averages range from 0 to 1, single-cell values, image 1, 3 channels, Cation K, no TP elements, strain 2): 0.09363
- Venus.ratio_cp ([1]; single-cell values (Cell 0, 1, 10, 11, 12), image 1, 3 channels, Nter sans, Cation K, Cter sans, strain 2): 1.038 and 1.1 and 1.124 and 1.055 and 1.047
- chloroplast targeting when combining cTP-N with cTP-C (^cP^c) [2, 4]: failed to show any chloroplast targeting; also recorded: fail to target the chloroplast
- Targeting ([2]; manual assignment printed per cell line of Table S3, Fig.S 7 panel a, Nter sans, Cation K, Cter sans, pODC 82, colony 16, strain 2): none
- minimum inhibitory concentration after replacing all Ks with Rs, compared with the natively K-rich sequence [3]: increased

Substance: FLPLLAGLAANFLPKIFCKITRKC [B1E, brevinin-1E, HA-RAMP antimicrobial peptide, reference compound]
- mitochondrial targeting upon sole addition of cTP-N (^cP) ([2]; 15 N-terminal residues of RCA1-cTP added, no C-terminal element, Figure 2): enabled mitochondrial targeting
- targeting when combining cTP-N with mTP-C (^cP^m) [2, 4]: dual targeting
- minimum inhibitory concentration after replacing all Ks with Rs, compared with the natively K-rich sequence [3]: increased

Substance: GIGKFLHSAKKFGKAFVGEIMNS [MII, magainin 2, HA-RAMP antimicrobial peptide, reference compound]
- mitochondrial targeting upon addition of mTP-C (P^m) ([2]; bare name = K and R versions): continued targeting
- mitochondrial localization upon addition of cTP-C (P^c) ([2]; Figure 2 rows E and F): compatible with mitochondrial localization
- organelle targeting (Venus reporter localization) by the construct as labelled [2]: only partial
- minimum inhibitory concentration after replacing all Ks with Rs, compared with the natively K-rich sequence [3]: increased

Substance: MVNYGNGVSCSRTRCSVNWGIITHQAFRVTSGVASGSVRRAQLQVVASSRKQMGRWRSIDAGVDASDDQ [B15.R.c]
- Localisation [2]: Chloroplast

Substance: MWLSKTAKKLENSAKKRISEGIAIAIKGGSR [CP3.K]
- Localisation [2]: Neither

Substance: MWLSKTAKKLENSAKKRISEGIAIAIKGGSRLTQTAESFRGVSSQFFDAPNGPSVKQVLIEDEW [CP3.K.m]
- Localisation [2]: Neither

Substance: MWLSKTAKKLENSAKKRISEGIAIAIKGGSRSVRRAQLQVVASSRKQMGRWRSIDAGVDASDDQ [CP3.K.c]
- Localisation [2]: Neither

Substance: MWLSRTARRLENSARRRISEGIAIAIRGGSR [CP3.R]
- Localisation [2]: Mitochondria (partial)

Substance: MWLSRTARRLENSARRRISEGIAIAIRGGSRLTQTAESFRGVSSQFFDAPNGPSVKQVLIEDEW [CP3.R.m]
- Localisation [2]: Mitochondria

Substance: MWLSRTARRLENSARRRISEGIAIAIRGGSRSVRRAQLQVVASSRKQMGRWRSIDAGVDASDDQ [CP3.R.c]
- Localisation [2]: Chloroplast

Substance: SFLTTFKDLAIKAAKSAGQSVLSTLSCKLSNTC [B2I, brevinin-2ISb, HA-RAMP antimicrobial peptide, reference compound]
- mitochondrial targeting upon addition of mTP-C (P^m) ([2]; bare name = K and R versions): continued targeting
- mitochondrial localization upon addition of cTP-C (P^c) ([2]; Figure 2 rows E and F): compatible with mitochondrial localization
- organelle targeting (Venus reporter localization) by the construct as labelled [2]: mitochondrial localization

Substance: VNYGNGVSCSKTKCSVNWGIITHQAFRVTSGVASG [B15, bacillocin 1580, HA-RAMP antimicrobial peptide, reference compound]
- chloroplast targeting upon addition of cTP-C (P^c) ([2]; C-terminal element of RCA1-cTP added to the named peptide, Figure 2 rows E and F, bare name = K and R versions): enabled chloroplast targeting
- targeting when combining cTP-N with mTP-C (^cP^m) [2, 4]: chloroplast targeting

Substance: cecropin-P3 [CP3K, reference compound]
- automated image quantification values [1]: high image quantification values
- chloroplast targeting when combining cTP-N with cTP-C (^cP^c) [2, 4]: fail to target the chloroplast
- targeting when combining cTP-N with mTP-C (^cP^m) [2, 4]: chloroplast targeting

Substance: ranatuerin-2G [R2GK, reference compound]
- automated image quantification values [1]: high image quantification values
- mitochondrial targeting upon addition of mTP-C (P^m) ([2]; bare name = K and R versions): enabled partial mitochondrial targeting
- chloroplast targeting when combining cTP-N with cTP-C (^cP^c) [2, 4]: fail to target the chloroplast
